Laboratory results from patent publication US20180318383A1, “PEPTIDE HAVING NEURONAL LOSS PREVENTION AND REGENERATION EFFECTS, AND COMPOSITION CONTAINING SAME” (GEMVAX & KAEL CO., LTD., priority 2015, published 2018).

Tests used:
NSCs [1] = assay: Apoptosis of NSCs by DAPI and TUNEL staining; type: cell-based, rat; settings: 20 μM Aβ25-35 + PEP1 up to 100 μM, 48 hours; p<0.05
Experimental: NSCs were placed onto collagen-coated glass coverslips with a diameter of 13 mm, and then treated in the manner described below: 1) […]; 2) treated with only 20 μM Aβ25-30; or 3) treated with 20 μM Aβ25-30 and PEP1 at each concentration (1, 10, 50, or 100 μM) for 48 hours.
The cells were washed with PBS and fixed with 4% paraformaldehyde for 20 minutes.
TUNEL staining is a method used to confirm apoptosis. To observe an intact, condensed or fragmented nucleus, the cells that have been stained with TUNEL were treated with 100 μg/ml DAPI for 20 minutes to stain the nucleus, and then mounted on a glass slide to which a DAPI-mixed mounting medium was applied.
The cells were observed under a fluorescence microscope and observed at excitation fluorescence wavelengths corresponding to DAPI and TUNEL.

NSCs [2] = assay: Proteomics and antibody microarray of NSCs; type: cell-based, rat; settings: 20 μM Aβ25-35 + 10 μM PEP1, 48 hours, antibody microarray
Experimental: The cultured NSCs were washed with cold PBS twice, and disrupted in a sample lysis buffer using a sonicator for 10 seconds. In addition, the cells were disrupted again for a further 1 hour at room temperature. After centrifugation at 15° C. and 15000 g for 1 hour, a non-water-soluble sample was eliminated, and only water-soluble samples were subjected to two-dimensional electrophoresis. A protein concentration was quantified by a Bradford method.
200 μg of a protein sample was loaded on an Immobiline DryStrip gel. […] was performed at 20° C. For electron focusing, a voltage was increased from 150 volts to 3500 volts over 3 hours to allow the sample to enter the gel. Before entering two-dimensionally, the sample was cultured in an equilibration buffer for 10 minutes. […]
For quantitative analysis, images were analyzed with a PDQuest system. […]
To identify a protein through peptide mass fingerprinting, a protein spot was cleaved into smaller peptides using trypsin, well mixed with a-cyano-4-hydroxycinnamic acid in 50% acetonitrile/0.1% TFA, and then analyzed with MALDI-TOF. […]
For antibody microarray analysis, a panorama antibody cell signaling kit was used. […] Array slides were read using a scanner, and results from the obtained scans were analyzed using an analysis program.

Tau = assay: NFT generation (Tau expression) in 3XTg-AD mice (western blotting, immunostaining); type: in vivo; settings: hippocampus and whole brain; vs control and Donepezil
Experimental: To test the efficacy of PEP1 on AD, AD transgenic mice (3XTg-AD) were purchased from Jackson Laboratory. Genetic characteristics of the transgenic mice are as follows: B6; 129-Psen1tm1Mpm Tg(APPSwe, tauP301L)1Lfa/Mmjax. […] One week after mice were confirmed as pregnant, new mice were delivered and weaned for 3 weeks. Two weeks later, mature mice were obtained.
During the preliminary breeding and the entire period of the experiment, a temperature was maintained at 23±2° C. and a relative humidity was maintained at 60±10%, and then the mice were raised under a 12-hour dark/light cycle. Experimental animals were divided into five groups, and each group included 10 animals. The divided experimental groups are as follows. […]
The PEP1, physiological saline, donepezil and scramble peptide were subcutaneously injected at each concentration three times a week for two months from the age of 12 months, and then two months after the injection, cognitive/memory behavior tests (passive avoidance test and Y maze test) were performed to examine a degree of improvement in cognitive function and memory function. After the brain was extracted to separate the hippocampus, the amounts of amyloid beta in the hippocampus and the whole brain, and the amounts of an amyloid beta oligomer and NFT generated by tau hyperphosphorylation were determined by western blotting and immunostaining. […]

[3] = numerous clinical trials targeting various diseases; cited from earlier work

EARPALLTSRLRFIPK (homo sapiens) [PEP1, hTERT-derived peptide consisting of 16 amino acids, telomerase location [611-626]]
degree of apoptosis of NSCs (NSCs [1]): significantly decreased
phosphorylated proteins associated with proliferation (NSCs [2]): recovered
expression level of Tau (Tau): decreased
toxicity / side effects [3]: stable in terms of side effects
